This note sets out measurements from US11591324B2, “Retinoic acid receptor antagonists as chaperone-mediated autophagy modulators and uses thereof” (ALBERT EINSTEIN COLLEGE OF MEDICINE, priority 2013, dated 2023).

Molecules are shown by their SMILES. Starred links: 1 amine or outer side, 2 acyl side, 3 side chain; linkers in the order of their positions; H or OH if unused. Positions of bridges follow the written chain, without caps; N, C: chain ends. Non-standard residues stand in square brackets, D forms with d. Residues, ends and D or L forms follow the SMILES beside them. Chains are numbered I, II in the order given. Actinocin(9to1) = Cc1c2oc3c(C)ccc(C(=O)[*:1])c3nc-2c(C(=O)[*:2])c(N)c1=O; NMeV = CN[C@H](C(=O)O)C(C)C; Sar = CNCC(=O)O

Experiment [1] has as its system chaperone-mediated autophagy (CMA). The experiment in a line: CMA reporter assay (photoactivable KFERQ-PA-mCherry1 reporter). In kind it is cell-based, mouse. To be noted: for CMA activity (fluorescent puncta per cell, CMA reporter): mouse fibroblasts, 20 μM. The text has this:
(§1) Autophagic measurements. […] Lysosomes from cultured cells were isolated by similar procedures but using instead discontinuous metrizamide/percoll gradients after rupture of the plasma membrane through nitrogen cavitation^33.
CMA reporter assay. The photoactivable CMA reporter was constructed by inserting a sequence of 21 amino acids of Ribonuclease A bearing the CMA-targeting motif in the N-terminus multicloning site of the photoactivable protein mCherry1 (PA-mCherry1)^30. […] All images were acquired with a high-resolution CCD camera after optical sectioning through the apotome. Images were prepared using Adobe Photoshop 6.0 software (Adobe Systems). Quantification was performed in individual frames after deconvolution and thresholding using ImageJ software (NIH) in a minimum of 50 cells.
Because the observed downregulation of macroautophagy upon RARα knock-down cannot explain the increase in lysosomal degradation observed in these cells (FIG. 1c), the effect of this intervention on CMA was measured. Activation of this selective autophagic pathway can be determined using a photoactivable (PA) reporter fused to the CMA-targeting motif (KFERQ-PA-mcherry1)^30. Activation of CMA favors mobilization of this artificial CMA substrate from the cytosol to lysosomes, which can be tracked as a change in the reporter fluorescence from a diffuse to a punctate pattern^30.
In general terms: A reporter such as luciferase makes a cellular process visible.

A further experiment relates to macroautophagy (LC3-II). The experiment in a line: Macroautophagy: LC3-II levels and flux (immunoblot, mCherry-GFP-LC3). To be noted: mouse fibroblasts; retinoid derivatives 20 μM. In kind it is cell-based.
Source text: as §1
To directly analyze macroautophagy, a widely accepted assay was used to measure activity of this pathway based on the analysis of the intracellular levels and degradation of the lipid-conjugated form of the light chain protein type 3 (LC3-II), a constitutive component of autophagosomes^29. Steady-state levels of LC3-II provide information on the amount of autophagosomes present in a cell at a given time, whereas the amount of LC3-II that accumulates upon blockage of lysosomal proteolysis allows measuring the efficiency of fusion and degradation of autophagic vacuoles by lysosomes (autophagic flux). […] Immunofluorescence for LC3 in these cells confirmed the presence of higher content of LC3-positive vesicles in the cells defective for RARα. These vesicles were confirmed to be autophagosomes using a double tagged form of LC3 (mCherry-GPF-LC3) that due to quenching of GFP fluorescence at low pH highlights autophagosomes in yellow and lysosomes in red. […] An increase in autophagosome content can result from increased formation of these organelles (autophagosome induction) or from reduced clearance of autophagosomes by lysosomes. To differentiate between both possibilities, the autophagic flux was compared in control and RARα (−) cells.
(In general: A western blot detects proteins with antibodies after separation by electrophoresis.)

The target in a further experiment is T1, hRARα (Homo sapiens, UniProt P10276).
T1 construct: expressed in transfected cells; host or cells: mouse fibroblasts (NIH3T3)
T1 sequence (P10276 with tags, fused parts or gaps limits assumed): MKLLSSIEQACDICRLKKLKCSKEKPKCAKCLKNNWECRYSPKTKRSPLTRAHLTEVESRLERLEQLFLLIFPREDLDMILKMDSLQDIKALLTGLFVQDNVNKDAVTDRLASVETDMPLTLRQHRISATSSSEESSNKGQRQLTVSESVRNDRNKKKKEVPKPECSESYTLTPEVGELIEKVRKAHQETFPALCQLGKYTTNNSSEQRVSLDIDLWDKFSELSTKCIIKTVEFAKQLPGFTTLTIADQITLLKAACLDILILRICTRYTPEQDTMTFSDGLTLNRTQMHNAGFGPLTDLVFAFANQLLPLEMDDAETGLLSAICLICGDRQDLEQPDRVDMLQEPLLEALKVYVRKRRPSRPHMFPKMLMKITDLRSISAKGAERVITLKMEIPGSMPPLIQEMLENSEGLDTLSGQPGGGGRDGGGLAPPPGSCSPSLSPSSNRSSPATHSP
Briefly: RARα activity, RAR-responsive luciferase reporter. The conditions noted are these: for RARα antagonist activity (inhibition of ATRA-dependent luciferase): in combination with 100 nM ATRA. In kind it is cell-based. The procedure:
Measurement of RARα and RXR activity. A RAR-responsive luciferase construct was utilized to monitor the activity of RARα in cultured cells. Cells were co-transfected with pCMX-Gal-L-hRARα and a construct encoding the firefly luciferase reporter gene under the control of a minimal promoter and tandem repeats of the retinoic-acid response element (tk-px3-luc). Co-transfection with a renilla luciferase reporter plasmid was performed to control for efficiency of transfection. RXR activity was measured by similar procedures using co-transfection with pCMX-mRXR and tk-apoA1-luc. Compounds were added 24 h after transfection and 48 h later cells were lysed and assayed for luciferase activity using the Dual-Luciferase Reporter Assay System (Progmega). Luciferase values were normalized to the renilla luciferase reporter.
To determine the effect of these molecules on RAR signaling, cells were co-transfected cells with a plasmid coding for RAR fused to the Gal4 DNA-binding domain and a Gal4-dependent luciferase reporter.

For experiment [2], the system named is mouse fibroblasts transfected with α-synuclein. The experiment in a line: α-synuclein plus PQ proteotoxicity (viability, immunoblot). In kind it is cell-based. To be noted: pre-treatment 20 μM before 1 mM PQ. From the text:
Maintained chronic oxidation is a common feature of aging and an aggravating factor in multiple degenerative disorders. To model the detrimental effect of oxidative stress on proteotoxicity and analyze the possible beneficial effect of enhancing CMA activity in these conditions, cells were transfected with α-synuclein, the protein that accumulates in the form of intracellular aggregates in Parkinson's disease (PD) and previously identified as a bonafide CMA substrate^9,10. Although mutations in this protein have been associated to the familial forms of the disease, in more than 98% of PD patients the protein that accumulates in the protein inclusions is wild type. Consequently, different intracellular factors and aggressors, including oxidative stress, have been proposed to contribute to the idiopathic forms of this pathology. […] Although the presence of α-synuclein alone was not toxic for these cells, the toxicity of a fixed concentration of PQ was clearly dependent on the concentration of this protein present in the cell. The concentration of PQ added to these cells was adjusted so that in cells expressing low levels of α-synuclein, its toxic effect was limited to no more than 20% reduction in cellular viability. […]

Experiment [3] concerns chaperone-mediated autophagy (CMA). The experiment in a line: High content microscopy CMA assay (KFERQ-PS-dendra reporter). In kind it is cell-based, mouse. To be noted: for basal versus stress-induced CMA activation: presence or absence of serum. As to the method: CMA activity in mouse fibroblasts in culture was measured using a new version of a previously developed photoswitchable (PS) CMA fluorescent reporter^30 generated by addition of a CMA targeting motif to the PS-dendra protein (KFERQ-PS-dendra). Briefly, cells transduced with lentivirus carrying the reporter were photoactivated 24 h after transduction by exposure to a 3.5 mA (current constant), and 90V light emitting diode (LED: Norlux, 405 nm) for 9 min. Cells were plated in 96 well plates, subjected to the desired treatments and at the end of the experiment fixed in 4% paraformaldehyde. Images were captured with a high content microscope (Opperetta system, Perkin Elmer) and quantification was performed with the instrument software in a minimum of 200 cells or 9 fields.

For a further experiment, the target named is T2, RARα (Mus musculus, UniProt P11416).
T2 construct: endogenous in cells; host or cells: mouse fibroblasts (NIH3T3), inferred
T2 sequence (P11416 1-462): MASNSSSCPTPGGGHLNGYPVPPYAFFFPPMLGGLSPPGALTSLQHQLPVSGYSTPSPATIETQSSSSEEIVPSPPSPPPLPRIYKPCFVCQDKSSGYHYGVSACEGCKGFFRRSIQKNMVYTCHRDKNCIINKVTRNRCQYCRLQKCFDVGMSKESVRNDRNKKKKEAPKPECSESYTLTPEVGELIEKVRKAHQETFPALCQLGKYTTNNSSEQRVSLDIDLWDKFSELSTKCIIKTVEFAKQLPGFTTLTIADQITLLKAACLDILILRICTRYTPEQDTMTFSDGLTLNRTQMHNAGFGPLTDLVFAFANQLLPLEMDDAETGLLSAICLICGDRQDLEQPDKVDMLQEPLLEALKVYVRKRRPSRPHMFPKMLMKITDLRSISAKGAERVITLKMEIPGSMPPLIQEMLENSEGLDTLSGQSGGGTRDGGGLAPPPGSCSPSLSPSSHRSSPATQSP
Briefly: RARα translocation to the nucleus. In kind it is cell-based.

A further experiment has as its system LAMP-2A. Briefly: LAMP-2A mRNA levels (quantitative real time PCR). Background: In qPCR the cycle at which signal appears reflects the starting amount.
Experiment [4] relates to mouse fibroblasts (NIH3T3). Briefly: Intracellular protein degradation (metabolic labeling, pulse chase).

As to `Cc1ccc(C2=Nc3ccc(Cl)cc3OC2)cc1` [AR7], the “CMA activity (fluorescent puncta per cell, CMA reporter)” value in experiment [1] (presence of serum) is on record as “marked activation of CMA activity”. Also, the “macroautophagy: LC3 steady state levels and lysosomal flux” value with macroautophagy (LC3-II) was “absence of effect on other autophagic pathways”. Moreover, on hRARα, the “RARα antagonist activity (inhibition of ATRA-dependent luciferase)” value is “among the most potent antagonist compounds in the library”. For the same molecule, the “cellular viability of α-synuclein-transfected cells treated with PQ” value in experiment [2] was “significant increases in cellular viability”. Also, the “basal versus stress-induced CMA activation” value in experiment [3] is listed as “only activated basal CMA”. In addition, the “RARα relocation to the nucleus” value at RARα was “sufficient to stimulate some relocation of cytosolic RARα to the nucleus”.

Take `CC1=C(/C=C/C(C)=C/C=C/C(C)=C/C(=O)O)C(C)(C)CCC1` [ATRA, all-trans-retinoic acid]: the “basal CMA” value in experiment [1] (ATRA treatment, presence of serum) was “did not have a noticeable effect on basal CMA”. Besides, in experiment [1] (ATRA treatment, serum removal), the “activation of CMA in response to serum removal” value is “significantly reduced the activation of this pathway in response to serum removal”. Further, the “effect on CMA activity in RARα (−) cells” value in experiment [1] (RARα knock-down mouse fibroblasts) was “no longer inhibited CMA activity in RARα (−) cells”. Further, the “macroautophagy: LC3 steady state levels and lysosomal flux” value in the experiment on macroautophagy (LC3-II) is given as “no significant changes in steady state levels of LC3 or in its lysosomal flux”. On hRARα (compound alone), the “RARα agonist activity (luciferase)” value was “dose-dependent activation”. Besides, the “LAMP-2A mRNA levels, serum deprived” value in the experiment with LAMP-2A (ATRA added to cells deprived of serum) is “significant decrease in LAMP-2A mRNA”. The “LAMP-2A mRNA levels, basal” value in the experiment with LAMP-2A (ATRA, basal conditions) is reported as “No changes in LAMP-2A mRNA levels”. In experiment [4] (40 μM ATRA, absence of serum), the “protein degradation in response to prolonged serum removal” value is recorded as “significantly reduced the increase in protein degradation”. For the same molecule, the “lysosomal degradation (sensitive to inhibitors of lysosomal proteolysis)” value in experiment [4] (40 μM ATRA, basal and inducible) was “both basal and inducible lysosomal degradation were significantly compromised”. Also, the “total rates of protein degradation, basal” value in experiment [4] (40 μM ATRA, presence of serum) is listed as “did not affect total rates of protein degradation under basal conditions”. The “inhibitory effect on autophagic degradation of cytosolic proteins in RARα (−) cells” value in experiment [4] (ATRA, RARα knock-down) is given as “still detectable when RARα (−) cells were supplemented with ATRA”.

Consider `Cc1c2oc3c(C)ccc(C(=O)N[C@@H]4C(=O)N[C@H](C(C)C)C(=O)N5CCC[C@H]5C(=O)N(C)CC(=O)N(C)[C@@H](C(C)C)C(=O)O[C@@H]4C)c3nc-2c(C(=O)N[C@@H]2C(=O)N[C@H](C(C)C)C(=O)N3CCC[C@H]3C(=O)N(C)CC(=O)N(C)[C@@H](C(C)C)C(=O)O[C@@H]2C)c(N)c1=O` [Actinomycin D] (I: T[dV]P[Sar][NMeV] / II: T[dV]P[Sar][NMeV]; ester I:1-I:C, II:1-II:C; linker I:N-II:N via Actinocin(9to1)), for which, in experiment [1] (AR7 plus Actinomycin D), the “stimulatory effect of AR7 on CMA under transcriptional repression” value is listed as “partially reduced the stimulatory effect of AR7 on CMA”.

As for `CC1(C)CC=C(c2cnc3ccccc3c2)c2cc(C(=O)Nc3ccc(C(=O)O)cc3)ccc21` [BMS614], in experiment [1] (presence of serum), the “CMA activity (fluorescent puncta per cell, CMA reporter)” value is reported as “also enhanced CMA activity”. Moreover, the “macroautophagy: LC3 steady state levels and lysosomal flux” value with macroautophagy (LC3-II) is “inhibited macroautophagy”.

Take `CC1=CC(=Cc2ccc(C(=O)NC(=N)N)cc2)CC(C)(C)C1` [GR1, N-[4-(3,5,5-trimethyl-cyclohex-2-enylidenemethyl)-benzoyl]-guanidine]: the “CMA activity (fluorescent puncta per cell, CMA reporter)” value in experiment [1] (presence of serum) is “marked activation of CMA activity”. Moreover, the “macroautophagy: LC3 steady state levels and lysosomal flux” value in the experiment on macroautophagy (LC3-II) was “absence of effect on other autophagic pathways”.

On to `CC1=CC(=Cc2ccc(C(=O)NC(=N)N)cc2)CCC1` [GR2, N-[4-(3-methyl-cyclohex-2-enylidenemethyl)-benzoyl]-guanidine], for which the “CMA activity (fluorescent puncta per cell, CMA reporter)” value in experiment [1] (presence of serum) is on record as “marked activation of CMA activity”. The “macroautophagy: LC3 steady state levels and lysosomal flux” value in the experiment with macroautophagy (LC3-II) is listed as “absence of effect on other autophagic pathways”. The “RARα antagonist activity (inhibition of ATRA-dependent luciferase)” value on hRARα was “among the most potent antagonist compounds in the library”.

Take `Clc1ccc2c(c1)OCC(c1ccc(-c3ccccc3)cc1)=N2` [QX39]: the “CMA activation potency relative to AR7” value in experiment [3] (cultured cells, photoactivatable CMA reporter) is given as 2-3 fold. The “basal versus stress-induced CMA activation” value in experiment [3] was “activated both basal and stress-induced CMA”.
